Data on 27 molecules can be found in patent US8546377B2 (AbbVie Inc., priority 2009, dated 2013).

Assay [1] concerns the target T1, human serotonin 5-HT2c receptor (Homo sapiens, UniProt P28335).
T1 construct: expressed in transfected cells; host or cells: CHO cells (membrane homogenate)
T1 sequence (P28335 33-458): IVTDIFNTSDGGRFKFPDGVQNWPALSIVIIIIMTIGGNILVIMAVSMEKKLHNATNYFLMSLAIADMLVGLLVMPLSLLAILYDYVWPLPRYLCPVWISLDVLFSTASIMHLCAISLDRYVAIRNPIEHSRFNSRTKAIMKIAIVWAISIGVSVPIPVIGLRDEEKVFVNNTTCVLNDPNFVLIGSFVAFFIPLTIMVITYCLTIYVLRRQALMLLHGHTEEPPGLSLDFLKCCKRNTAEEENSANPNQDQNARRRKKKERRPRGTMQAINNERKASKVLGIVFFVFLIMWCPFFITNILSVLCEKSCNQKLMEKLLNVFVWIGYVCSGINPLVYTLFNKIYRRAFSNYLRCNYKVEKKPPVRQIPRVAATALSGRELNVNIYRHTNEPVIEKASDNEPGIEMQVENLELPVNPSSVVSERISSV
Briefly: Human 5-HT2C receptor radioligand binding assay (agonist site, [125I](±)DOI). Conditions: membranes of transfected CHO cells, 0.2 nM [125I](±)DOI, 15 minutes at 37° C. On the procedure:
To determine the effectiveness of compounds having a formula (I), these compounds can be evaluated in a radioligand binding assay for the agonist site of the human serotonin 5-HT2c receptor or in vitro models of cellular function.
(i) Human 5-HT2C Receptor Radioligand Binding Assay
Affinity of compounds for the agonist site of the 5-HT2c receptor in transfected CHO cells was determined in a radioligand binding assay essentially as described by Bryant, H. U., et al., Life Sciences (1996) 59(15), 1259-1268.

Assay [2] has as its target T2, 5HT2C receptors (Homo sapiens, UniProt P28335).
T2 sequence (P28335 33-458): T1 sequence (P28335 33-458)
Briefly: Human 5-HT2C functional assay in 1321N1 cells (intracellular calcium, FLIPR). Details: expressed in transfected cells; host or cells: 1321N1 cells. Type of assay: cell-based. Conditions: for EC50: 1321N1 cells stably transfected, maximum calcium response, read-out: EC50 (μM), 5-HT2c Agonist Activity; for Emax: 1321N1 cells, percentage relative to the effect of serotonin, read-out: Emax (%), 5-HT2c Agonist Activity. As to the method: (ii) Human 5-HT2C Functional Assay in 1321N1 Cells
Functional activity was determined by testing the effect of the compounds on intracellular calcium levels in 1321N1 cells stably transfected with the human 5-HT2C receptor. Cells were seeded into 96-well plates at 50,000 cells/well and grown overnight in tissue culture medium (DMEM with Glutamax I (Invitrogen), containing 10% dFCS, 50 μg/mL Gentamicin, 400 μg/mL Geneticin) at 37° C. and 7% CO2. Growth medium was replaced by medium without dFCS for overnight incubation. Cells were loaded with a fluorescent calcium-sensitive dye in the presence of 1% probenicid according to the manufacturer's protocol (Fluo4 AM, Molecular Devices). Serial compound dilutions (final concentrations 10^−10 to 10^−5 M) were added to the cells either alone or in the presence of serotonin (10^−9 M) and the maximum calcium response was determined using a FLIPR instrument (Molecular Devices). Concentration-response curves were fitted using a four-parameter logistic equation (GraphPad Prism). The concentration at which the compound exerts half its maximal effect is named the ‘effective concentration 50’ or ‘EC50’ and is listed in Table 2.
Emax is the maximum functional response or efficacy expressed as a percentage relative to the effect of serotonin.
(In general: A change in cytosolic calcium serves as a functional read-out for many receptors and channels.)

With `O=C1CC2CNCCN2c2cc(Cl)c(Cl)cc2N1` (stereo not drawn) [Example 15, 9,10-dichloro-1,2,3,4,4a,5-hexahydropyrazino[1,2-a][1,5]benzodiazepin-6(7H)-one], the affinity in assay [1] corresponds to a Ki of 0.017 µM. Also, in assay [2], the EC50 (usually the midpoint of the concentration-response curve) stood at 0.0081 µM and the maximal effect (Emax) (as a rule, the greatest response seen or fitted, relative to the assay's reference) is 104%.

Take `O=C1CC2CNCCN2c2cc(CCc3ccccc3)ccc2N1` (stereo not drawn) [Example 29, 10-(2-phenylethyl)-1,2,3,4,4a,5-hexahydropyrazino[1,2-a][1,5]benzodiazepin-6(7H)-one]: the Ki (commonly the dissociation constant of the complex between target and ligand, obtained from inhibition or displacement) in assay [1] was 0.011 µM. In addition, in assay [2], the 50% effective concentration (EC50) was determined as 0.0043 µM and the maximum response (Emax) turned out to be 104%.

`O=C1CC2CNCCN2c2ccc(F)cc2N1` (stereo not drawn) [Example 34, 9-fluoro-1,2,3,4,4a,5-hexahydropyrazino[1,2-a][1,5]-benzodiazepin-6(7H)-one] showed an inhibitory constant (Ki) in assay [1] of 0.19 µM. In assay [2], the EC50 was 0.0893 µM and the Emax was 100%.

`O=C1CC2CNCCN2c2cc(Br)ccc2N1` (stereo not drawn) [Example 4, 10-bromo-1,2,3,4,4a,5-hexahydropyrazino[1,2-a][1,5]-benzodiazepin-6(7H)-one] yielded a Ki in assay [1] of 0.0069 µM. In assay [2], the concentration giving a half-maximal response (EC50) is 0.0028 µM and the maximal effect (Emax) worked out at 92%.

The molecule `Cc1ccc2c(c1)N1CCNCC1CC(=O)N2` (stereo not drawn) [Example 10, 10-methyl-1,2,3,4,4a,5-hexahydropyrazino[1,2-a][1,5]benzodiazepin-6(7H)-one] gave an inhibition constant Ki in assay [1] of 0.0083 µM. For the same molecule, in assay [2], the concentration giving a half-maximal response (EC50) was 0.003 µM and the Emax was 99%.

`O=C1CC2CNCCN2c2cc(-c3cccc(Cl)c3)ccc2N1` (stereo not drawn) [Example 7, 10-(3-chlorophenyl)-1,2,3,4,4a,5-hexahydropyrazino[1,2-a][1,5]benzodiazepin-6(7H)-one] gave a Ki in assay [1] of 0.041 µM. In addition, in assay [2], the EC50 was 0.0279 µM and the Emax was found to be 86%.

For `O=C1CC2CNCCN2c2cc(/C=C/c3ccccc3)ccc2N1` (stereo not drawn) [Example 6, 10-[(E)-2-phenylvinyl]-1,2,3,4,4a,5-hexahydropyrazino[1,2-a][1,5]benzodiazepin-6(7H)-one], the inhibition constant (Ki) in assay [1] amounted to 0.0035 µM. Further, in assay [2], the EC50 turned out to be 0.0298 µM and the Emax came to 89.5%.

In assay [1], `O=C1CC2CNCCN2c2cc(/C=C/c3ccc(F)cc3)ccc2N1` (stereo not drawn) [Example 26, 10-[(E)-2-(4-fluorophenyl)vinyl]-1,2,3,4,4a,5-hexahydropyrazino[1,2-a][1,5]benzodiazepin-6(7H)-one] showed an inhibition constant (Ki) of 0.032 µM. Moreover, in assay [2], the EC50 was 0.0855 µM and the Emax turned out to be 98.5%.

As to `CCN1CCN2c3ccccc3NC(=O)CC2C1` (stereo not drawn) [Example 23, 3-ethyl-1,2,3,4,4a,5-hexahydropyrazino[1,2-a][1,5]benzodiazepin-6(7H)-one], the affinity in assay [1], expressed as Ki, was 0.19 µM. Moreover, in assay [2], the EC50 is 0.165 µM and the maximum response (Emax) was 87%.

In the case of `O=C1CC2CNCCN2c2cc(-c3ccccc3)ccc2N1` (stereo not drawn) [Example 5, 10-phenyl-1,2,3,4,4a,5-hexahydropyrazino[1,2-a][1,5]benzodiazepin-6(7H)-one], in assay [1], the affinity, expressed as Ki, was 0.074 µM. Also, in assay [2], the EC50 is 0.0849 µM and the Emax stood at 86%.

On to `Clc1cc2c(cc1Cl)N1CCNCC1CCN2` (stereo not drawn) [Example 16, 9,10-dichloro-1,2,3,4,4a,5,6,7-octahydropyrazino[1,2-a][1,5]benzodiazepine], for which the Ki in assay [1] was 0.004 µM. In assay [2], the 50% effective concentration (EC50) came to 0.0018 µM and the maximum response (Emax) stood at 91%.

Regarding `O=C1CC2CN(Cc3ccccc3)CCN2c2cc(Cl)ccc2N1` (stereo not drawn) [Example 24, 3-benzyl-10-chloro-1,2,3,4,4a,5-hexahydropyrazino[1,2-a][1,5]benzodiazepin-6(7H)-one], the Ki in assay [1] is 0.36 µM. Besides, in assay [2], the EC50 was determined as 0.942 µM.

`O=C1CC2CNCCN2c2cc(Cl)ccc2N1` (stereo not drawn) [Example 3, 10-chloro-1,2,3,4,4a,5-hexahydropyrazino[1,2-a][1,5]benzodiazepin-6(7H)-one]: the Ki in assay [1] was 0.012 µM. Besides, in assay [2], the EC50 worked out at 0.0017 µM and the maximal response (Emax) was found to be 93%.

On to `O=C1CC2CNCCN2c2ccc(-c3ccc(Cl)cc3)cc2N1` (stereo not drawn) [Example 14, 9-(4-chlorophenyl)-1,2,3,4,4a,5-hexahydropyrazino[1,2-a][1,5]-benzodiazepin-6(7H)-one], for which the Ki in assay [1] is 0.17 µM.

As to `O=C1CC2CNCCN2c2ccc3ccccc3c2N1` (stereo not drawn) [Example 39, 3,3a,4,5,6,7-hexahydronaphtho[1,2-b]pyrazino[1,2-d][1,4]diazepin-2(1H)-one], affinity in assay [1] was put at a Ki of 0.034 µM. Also, the half-maximal effective concentration (EC50) in assay [2] was more than 10 µM.

Regarding `Clc1ccc2c(c1)N1CCNCC1CCN2` (stereo not drawn) [Example 18, 10-chloro-1,2,3,4,4a,5,6,7-octahydropyrazino[1,2-a][1,5]benzodiazepine], the Ki in assay [1] turned out to be 0.018 µM. In assay [2], the EC50 was found to be 0.0037 µM and the maximum response (Emax) was found to be 108%.

As for `O=C1CC2CNCCN2c2cc(C(F)(F)F)ccc2N1` (stereo not drawn) [Example 31, 10-(trifluoromethyl)-1,2,3,4,4a,5-hexahydropyrazino[1,2-a][1,5]benzodiazepin-6(7H)-one], in assay [1], the Ki turned out to be 0.087 µM. Also, in assay [2], the EC50 was found to be 0.0204 µM and the Emax worked out at 118%.

The molecule `Clc1ccccc1CN1CCC2CNCCN2c2ccccc21` (stereo not drawn) [Example 21, 7-(2-chlorobenzyl)-1,2,3,4,4a,5,6,7-octahydropyrazino[1,2-a][1,5]benzodiazepine] displayed an inhibition constant (Ki) in assay [1] of 0.097 µM. In assay [2], the 50% effective concentration (EC50) came to 0.044 µM and the Emax came out at 93%.

For the molecule `O=C1CC2CNCCN2c2cc(-c3ccccc3Cl)ccc2N1` (stereo not drawn) [Example 8, 10-(2-chlorophenyl)-1,2,3,4,4a,5-hexahydropyrazino[1,2-a][1,5]benzodiazepin-6(7H)-one], the inhibition constant (Ki) in assay [1] was determined as 0.14 µM.

For `O=C1CC2CNCCN2c2c(Br)cccc2N1` (stereo not drawn) [Example 30, 11-bromo-1,2,3,4,4a,5-hexahydropyrazino[1,2-a][1,5]benzodiazepin-6(7H)-one], in assay [1], the Ki came out at 0.016 µM. In addition, in assay [2], the EC50 was found to be 0.0017 µM and the Emax came out at 113%.

Take `O=C1CC2CNCCN2c2ccccc2N1` (stereo not drawn) [Example 1, 1,2,3,4,4a,5-hexahydropyrazino[1,2-a][1,5]benzodiazepin-6(7H)-one]: the affinity in assay [1], expressed as Ki, was 0.086 µM. In assay [2], the concentration giving a half-maximal response (EC50) was 0.0135 µM and the maximal response (Emax) was determined as 100%.

As for `COc1ccc2c(c1)N1CCNCC1CC(=O)N2` (stereo not drawn) [Example 12, 10-methoxy-1,2,3,4,4a,5-hexahydropyrazino[1,2-a][1,5]benzodiazepin-6(7H)-one], the affinity in assay [1] corresponds to a Ki of 0.038 µM. Moreover, in assay [2], the 50% effective concentration (EC50) was 0.0381 µM and the Emax was 83.5%.

Take `O=C1CC2CNCCN2c2cc(/C=C/c3ccc(F)cc3F)ccc2N1` (stereo not drawn) [Example 28, 10-[(E)-2-(2,4-difluorophenyl)vinyl]-1,2,3,4,4a,5-hexahydropyrazino[1,2-a][1,5]benzodiazepin-6(7H)-one]: the inhibition constant (Ki) in assay [1] is 0.036 µM. Further, in assay [2], the concentration giving a half-maximal response (EC50) is 0.131 µM and the Emax stood at 92%.

In assay [1], `O=C1CC2CNCCN2c2ccc(Br)cc2N1` (stereo not drawn) [Example 13, 9-bromo-1,2,3,4,4a,5-hexahydropyrazino[1,2-a][1,5]benzodiazepin-6(7H)-one] displayed a Ki of 0.23 µM. Further, in assay [2], the EC50 is 0.0683 µM and the maximal effect (Emax) was 79%.

For the molecule `N#Cc1ccc2c(c1)N1CCNCC1CC(=O)N2` (stereo not drawn) [Example 11, 6-oxo-1,2,3,4,4a,5,6,7-octahydropyrazino[1,2-a][1,5]benzodiazepine-10-carbonitrile], the inhibitory constant (Ki) in assay [1] amounted to 0.19 µM. For the same molecule, in assay [2], the EC50 stood at 0.0938 µM and the maximum response (Emax) amounted to 104%.

For the molecule `O=C1CC2CNCCN2c2cc(/C=C/c3ccc(Cl)cc3)ccc2N1` (stereo not drawn) [Example 27, 10-[(E)-2-(4-chlorophenyl)vinyl]-1,2,3,4,4a,5-hexahydropyrazino[1,2-a][1,5]benzodiazepin-6(7H)-one], in assay [1], the Ki came to 0.013 µM. Besides, in assay [2], the concentration giving a half-maximal response (EC50) was 0.183 µM and the Emax turned out to be 96.5%.

As to `CN1C(=O)CC2CNCCN2c2ccccc21` (stereo not drawn) [Example 20, 7-methyl-1,2,3,4,4a,5-hexahydropyrazino[1,2-a][1,5]benzodiazepin-6(7H)-one], the affinity in assay [1] corresponds to a Ki of 0.22 µM. In addition, in assay [2], the concentration for a half-maximal effect (EC50) amounted to 0.0759 µM and the Emax came out at 103%.
